pIC50: −log10 of the molar value.
Experiments:
[1] = molecular target: T1, HDAC1 (Homo sapiens, UniProt Q13547); test: Inhibition of HDAC1 activity (HDAC1 fluorimetric drug discovery assay kit); format: biochemical; conditions: test concentrations 100, 1000 and 10000 nM; 37° C., 60 minutes
T1 construct: purchased Enzolifesciences BML-AK511
Description: (§1) Assays were performed using a HDAC1 fluorimetric drug discovery assay kit (Enzolifesciences: BML-AK511) and a HDAC6 human recombinant (Calbiochem: 382180). The assay mixture of the kit was treated with a test compound at concentrations of 100, 1000 and 10000 nM for HDAC1 assay and concentrations of 0.1, 1, 10, 100 and 1000 nM for HDAC6 assay. The treated assay mixture was allowed to react at 37° C. for 60 minutes, and then was treated with a developer and allowed to stand at 37° C. for 30 minutes, followed by quantification of the fluorescence.

[2] = molecular target: T2, HDAC6 human recombinant (Homo sapiens, UniProt Q9UBN7); test: Inhibition of HDAC6 activity (fluorimetric assay); format: biochemical; conditions: test concentrations 0.1, 1, 10, 100 and 1000 nM; 37° C., 60 minutes
T2 construct: purchased Calbiochem 382180
T2 sequence (Q9UBN7 1-1215): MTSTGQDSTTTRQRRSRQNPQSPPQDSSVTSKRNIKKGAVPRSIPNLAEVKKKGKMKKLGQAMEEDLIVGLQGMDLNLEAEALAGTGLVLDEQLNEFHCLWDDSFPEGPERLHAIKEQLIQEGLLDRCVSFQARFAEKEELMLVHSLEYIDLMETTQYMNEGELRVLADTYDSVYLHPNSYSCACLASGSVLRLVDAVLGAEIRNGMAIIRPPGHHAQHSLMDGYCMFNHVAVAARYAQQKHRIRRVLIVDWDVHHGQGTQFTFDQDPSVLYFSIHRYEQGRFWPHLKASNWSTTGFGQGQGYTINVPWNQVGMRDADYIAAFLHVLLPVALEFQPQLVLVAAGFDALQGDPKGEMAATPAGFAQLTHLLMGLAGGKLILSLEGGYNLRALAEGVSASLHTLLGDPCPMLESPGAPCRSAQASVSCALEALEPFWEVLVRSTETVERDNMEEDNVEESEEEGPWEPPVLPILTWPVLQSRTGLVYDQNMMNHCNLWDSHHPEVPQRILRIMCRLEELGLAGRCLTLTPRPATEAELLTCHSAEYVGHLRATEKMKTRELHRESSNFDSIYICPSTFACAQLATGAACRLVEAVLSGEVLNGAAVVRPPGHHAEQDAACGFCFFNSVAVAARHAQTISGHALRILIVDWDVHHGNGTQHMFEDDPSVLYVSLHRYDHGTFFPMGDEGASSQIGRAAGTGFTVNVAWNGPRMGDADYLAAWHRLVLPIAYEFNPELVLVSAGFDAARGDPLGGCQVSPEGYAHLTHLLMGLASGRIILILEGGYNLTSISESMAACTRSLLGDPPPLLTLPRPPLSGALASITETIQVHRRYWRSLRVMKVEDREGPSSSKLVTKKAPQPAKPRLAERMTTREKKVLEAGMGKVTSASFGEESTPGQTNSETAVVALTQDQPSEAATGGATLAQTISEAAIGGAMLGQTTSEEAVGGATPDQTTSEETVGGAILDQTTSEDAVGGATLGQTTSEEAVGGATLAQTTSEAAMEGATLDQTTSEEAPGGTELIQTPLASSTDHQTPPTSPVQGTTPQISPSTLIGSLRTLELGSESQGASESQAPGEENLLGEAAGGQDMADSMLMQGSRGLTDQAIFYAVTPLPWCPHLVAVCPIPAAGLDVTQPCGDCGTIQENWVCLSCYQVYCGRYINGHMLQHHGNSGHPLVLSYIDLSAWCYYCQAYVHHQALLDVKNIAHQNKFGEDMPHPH
Description: as §1

T1 sequence (Q13547 whole entry): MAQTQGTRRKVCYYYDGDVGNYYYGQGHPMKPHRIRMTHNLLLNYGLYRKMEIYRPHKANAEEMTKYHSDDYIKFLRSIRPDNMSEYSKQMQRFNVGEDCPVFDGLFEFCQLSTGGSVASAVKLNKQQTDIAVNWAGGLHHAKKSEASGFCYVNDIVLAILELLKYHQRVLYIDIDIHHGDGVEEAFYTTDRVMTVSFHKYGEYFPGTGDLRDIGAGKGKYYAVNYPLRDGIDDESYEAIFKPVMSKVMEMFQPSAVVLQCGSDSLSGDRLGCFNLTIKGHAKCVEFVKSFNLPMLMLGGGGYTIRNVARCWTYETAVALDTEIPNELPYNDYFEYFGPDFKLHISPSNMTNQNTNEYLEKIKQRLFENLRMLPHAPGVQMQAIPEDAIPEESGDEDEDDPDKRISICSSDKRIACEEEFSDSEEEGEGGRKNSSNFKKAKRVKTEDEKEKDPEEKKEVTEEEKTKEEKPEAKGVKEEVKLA

Compound | pIC50 [1] | pIC50 [2]
O=C(NO)c1ccc(Cn2ccc3c(-c4ccc(CN5CCOCC5)cc4)ccnc32)cc1 [Compound 762, N-hydroxy-4-((4-(4-(morpholinomethyl)phenyl)-1H-pyrrolo[2,3-b]pyridin-1-yl)methyl)benzamide] | 6.11 | 8.00
CC(C)(F)CN1CCN(Cc2ccc(-c3ccnc4c3ccn4Cc3ccc(C(=O)NO)cc3)cc2)CC1 [Compound 763, 4-((4-(4-((4-(2-fluoro-2-methylpropyl)piperazin-1-yl)methyl)phenyl)-1H-pyrrolo[2,3-b]pyridin-1-yl)methyl)-N-hydroxybenzamide] | 5.38 | 6.52
CCC(F)(CC)CN1CCN(c2ccnc3c2ccn3Cc2ccc(C(=O)NO)cc2)CC1 [Compound 764, 4-((4-(4-(2-ethyl-2-fluorobutyl)piperazin-1-yl)-1H-pyrrolo[2,3-b]pyridin-1-yl)methyl)-N-hydroxybenzamide] | 5.49 | 7.04
O=C(NO)c1ccc(Cn2ccc3cc(C4CCN(Cc5cccc(F)c5)CC4)cnc32)cc1 [Compound 781, 4-((5-(1-(3-fluorobenzyl)piperidin-4-yl)-1H-pyrrolo[2,3-b]pyridin-1-yl)methyl)-N-hydroxybenzamide] | 5.61 | 7.74
CC(C)(C)OC(=O)N1CC=C(c2ccnc3c2ccn3Cc2ccc(C(=O)NO)cc2)CC1 [Compound 784] | 6.03 | 7.80
CC(C)(C)OC(=O)N1CC=C(c2cnc3ccn(Cc4ccc(C(=O)NO)cc4)c3c2)CC1 [Compound 786, tert-butyl 4-(1-(4-(hydroxycarbamoyl)benzyl)-1H-pyrrolo[3,2-b]pyridin-6-yl)-5,6-dihydropyridine-1(2H)-carboxylate] | 6.21 | 8.24
O=C(NO)c1ccc(Cn2ccc3cc(N4CCOCC4)cnc32)cc1 [Compound 787, N-hydroxy-4-((5-morpholino-1H-pyrrolo[2,3-b]pyridin-1-yl)methyl)benzamide] | 5.56 | 7.60
O=C(NO)c1ccc(Cn2ccc3cc(C4CCN(Cc5ccccc5)CC4)cnc32)cc1 [Compound 804, 4-((5-(1-benzylpiperidin-4-yl)-1H-pyrrolo[2,3-b]pyridin-1-yl)methyl)-N-hydroxybenzamide] | 5.70 | 7.24
CC1CCN(c2cnc3c(ccn3Cc3ccc(C(=O)NO)cc3)c2)CC1 [Compound 805, N-hydroxy-4-((5-(4-methylpiperidin-1-yl)-1H-pyrrolo[2,3-b]pyridin-1-yl)methyl)benzamide] | 5.79 | 7.42
O=C(NO)c1ccc(Cn2ccc3cc(N4CCN(Cc5ccccc5)CC4)cnc32)cc1 [Compound 806, 4-((5-(4-benzylpiperazin-1-yl)-1H-pyrrolo[2,3-b]pyridin-1-yl)methyl)-N-hydroxybenzamide] | 6.17 | 8.17
CC(C)(C)OC(=O)NC1CCN(c2cnc3c(ccn3Cc3ccc(C(=O)NO)cc3)c2)CC1 [Compound 809, tert-butyl (1-(1-(4-(hydroxycarbamoyl)benzyl)-1H-pyrrolo[2,3-b]pyridin-5-yl)piperidin-4-yl)carbamate] | 5.43 | 7.52
COc1ccc(CN2CCC(c3cnc4c(ccn4Cc4ccc(C(=O)NO)cc4)c3)CC2)cc1 [Compound 830, N-hydroxy-4-((5-(1-(4-methoxybenzyl)piperidin-4-yl)-1H-pyrrolo[2,3-b]pyridin-1-yl)methyl)benzamide] | 5.72 | 7.89
O=C(NO)c1ccc(Cn2ccc3cc(C4CCN(C(=O)c5cccc(F)c5)CC4)cnc32)cc1 [Compound 831, 4-((5-(1-(3-fluorobenzoyl)piperidin-4-yl)-1H-pyrrolo[2,3-b]pyridin-1-yl)methyl)-N-hydroxybenzamide] | 5.91 | 8.15
O=C(NO)c1ccc(Cn2ccc3cc(C4CCN(Cc5ccccc5F)CC4)cnc32)cc1 [Compound 839, 4-((5-(1-(2-fluorobenzyl)piperidin-4-yl)-1H-pyrrolo[2,3-b]pyridin-1-yl)methyl)-N-hydroxybenzamide] | 5.72 | 7.76
O=C(NO)c1ccc(Cn2ccc3cc(C4CCN(Cc5cccnc5)CC4)cnc32)cc1 [Compound 840, N-hydroxy-4-((5-(1-(pyridin-3-ylmethyl)piperidin-4-yl)-1H-pyrrolo[2,3-b]pyridin-1-yl)methyl)benzamide] | 6.21 | 8.39
COc1cccc(CN2CCC(c3cnc4c(ccn4Cc4ccc(C(=O)NO)cc4)c3)CC2)c1 [Compound 842, N-hydroxy-4-((5-(1-(3-methoxybenzyl)piperidin-4-yl)-1H-pyrrolo[2,3-b]pyridin-1-yl)methyl)benzamide] | 5.75 | 7.85
O=C(NO)c1ccc(Cn2ccc3cc(C4CCN(Cc5ccc(F)cc5)CC4)cnc32)cc1 [Compound 843, 4-((5-(1-(4-fluorobenzyl)piperidin-4-yl)-1H-pyrrolo[2,3-b]pyridin-1-yl)methyl)-N-hydroxybenzamide] | 6.11 | 7.85
COc1cccc(CN2CCN(c3ccnc4c3ccn4Cc3ccc(C(=O)NO)cc3)CC2)c1 [Compound 846, N-hydroxy-4-((4-(4-(3-methoxybenzyl)piperazin-1-yl)-1H-pyrrolo[2,3-b]pyridin-1-yl)methyl)benzamide] | 5.85 | 8.24

The remaining compounds from weak to strong by pIC50 [1], led by results:

pIC50 [1] | pIC50 [2] | Compound
6.22 | 8.25 | O=C(NO)c1ccc(Cn2ccc3c(N4CCN(Cc5ccccc5F)CC4)ccnc32)cc1 [Compound 847, 4-((4-(4-(2-fluorobenzyl)piperazin-1-yl)-1H-pyrrolo[2,3-b]pyridin-1-yl)methyl)-N-hydroxybenzamide]
6.24 | 8.42 | CN1CCN(Cc2cccc(-c3ccnc4c3ccn4Cc3ccc(C(=O)NO)cc3)c2)CC1 [Compound 799, N-hydroxy-4-((4-(3-((4-methylpiperazin-1-yl)methyl)phenyl)-1H-pyrrolo[2,3-b]pyridin-1-yl)methyl)benzamide]
6.26 | 8.47 | O=C(NO)c1ccc(Cn2ccc3cc(C4CCN(Cc5ccccn5)CC4)cnc32)cc1 [Compound 844]
6.27 | 8.16 | O=C(NO)c1ccc(Cn2ccc3cc(C4CCN(Cc5ccncc5)CC4)cnc32)cc1 [Compound 841, N-hydroxy-4-((5-(1-(pyridin-4-ylmethyl)piperidin-4-yl)-1H-pyrrolo[2,3-b]pyridin-1-yl)methyl)benzamide]
6.35 | 7.92 | CC(C)(C)OC(=O)N1CC=C(c2cc3c(ccn3Cc3ccc(C(=O)NO)cc3)cn2)CC1 [Compound 783, tert-butyl 4-(1-(4-(hydroxycarbamoyl)benzyl)-1H-pyrrolo[3,2-c]pyridin-6-yl)-5,6-dihydropyridine-1(2H)-carboxylate]
6.41 | 7.98 | CC1CN(c2cnc3c(ccn3Cc3ccc(C(=O)NO)cc3)c2)CC(C)O1 (stereo not shown) [Compound 807, 4-((5-(2,6-dimethylmorpholino)-1H-pyrrolo[2,3-b]pyridin-1-yl)methyl)-N-hydroxybenzamide]
6.52 | 8.92 | O=C(NO)c1ccc(Cn2ccc3cc(C4CCN(Cc5noc(C(F)(F)F)n5)CC4)cnc32)cc1 [Compound 845, N-hydroxy-4-((5-(1-((5-(trifluoromethyl)-1,2,4-oxadiazol-3-yl)methyl)piperidin-4-yl)-1H-pyrrolo[2,3-b]pyridin-1-yl)methyl)benzamide]
6.82 | 8.30 | CC(C)(O)CN1CCC(c2ccnc3c2ccn3Cc2ccc(C(=O)NO)cc2)CC1 [Compound 812, N-hydroxy-4-((4-(1-(2-hydroxy-2-methylpropyl)piperidin-4-yl)-1H-pyrrolo[2,3-b]pyridin-1-yl)methyl)benzamide]

From patent publication US9650379B2 (CHONG KUN DANG PHARMACEUTICAL CORP., priority 2013, dated 2017)
